The supplement of paper PMC10307832

Assays:
Experiment in all cases: relative viability (nuclei count vs DMSO), 5 days (fraction); higher = more cells survive
[1] = compound: C[C@]12O[C@H](C[C@]1(O)CO)n1c3ccccc3c3c4c(c5c6ccccc6n2c5c31)CNC4=O [Lestaurtinib] + N=C(N)NC(=N)NCCc1ccccc1 [Phenformin] (partner 250 µM)
Summary of the method: (§1)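 The day after seeding in 1536-well plates, lung cancer cell lines were treated by pin tool with a single drug, or with a fixed anchor-drug dose together with five library-drug doses (not always all listed) in √10 steps. After 5 days, a combined fix-and-stain solution (final 0.05% Triton X-100, 1% formaldehyde, 1 ug/ml Hoechst) was added. Nuclei counted on 4× images gave relative viability as treated counts over vehicle counts, reported as the median of duplicate plates.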

[2] = compound: C1/C(=C\C2=CC=CS2)/C(=O)/C(=C/C3=CC=CS3)/C1 + CC(=O)Nc1cccc(-n2c(=O)n(C3CC3)c(=O)c3c(Nc4ccc(I)cc4F)n(C)c(=O)c(C)c32)c1 [Trametinib] (partner 0.02 µM)
Summary of the method: as §1

TPCA-1 + Alpelisib = compound: C1=CC(=CC=C1C2=CC(=C(S2)NC(=O)N)C(=O)N)F [TPCA-1] + Cc1nc(NC(=O)N2CCC[C@H]2C(N)=O)sc1-c1ccnc(C(C)(C)C(F)(F)F)c1 [Alpelisib] (partner 2 µM)
Summary of the method: as §1

[3] = compound: C1/C(=C\C2=CC=CS2)/C(=O)/C(=C/C3=CC=CS3)/C1 + CS(=O)(=O)N1CCN(Cc2cc3nc(-c4cccc5[nH]ncc45)nc(N4CCOCC4)c3s2)CC1 [Pictilisib] (partner 1 µM)
Summary of the method: as §1

Row | Cell Line | relative viability ([1]; first compound 0.005 µM) | relative viability ([1]; first compound 0.01581 µM) | relative viability ([1]; first compound 0.05 µM) | relative viability ([1]; first compound 0.1581 µM) | relative viability ([1]; first compound 0.5 µM) | relative viability ([2]; first compound 0.2 µM) | relative viability ([2]; first compound 0.6325 µM) | relative viability ([2]; first compound 2 µM) | relative viability ([2]; first compound 6.325 µM) | relative viability ([2]; first compound 20 µM) | relative viability (TPCA-1 + Alpelisib; first compound 0.04 µM) | relative viability (TPCA-1 + Alpelisib; first compound 0.1265 µM) | relative viability (TPCA-1 + Alpelisib; first compound 0.4 µM) | relative viability (TPCA-1 + Alpelisib; first compound 1.265 µM) | relative viability (TPCA-1 + Alpelisib; first compound 4 µM) | relative viability ([3]; first compound 0.2 µM) | relative viability ([3]; first compound 0.6325 µM) | relative viability ([3]; first compound 2 µM) | relative viability ([3]; first compound 6.325 µM) | relative viability ([3]; first compound 20 µM)
1 | 201T | 0.467 | 0.491 | 0.363 | 0.418 | 0.278 | 0.708 | 0.704 | 0.736 | 0.708 | 0.706 | 1 | 0.998 | 1.01 | 1.08 | 0.983 | 0.695 | 0.688 | 0.697 | 0.607 | 0.664
2 | A549 | 0.204 | 0.141 | 0.16 | 0.1 | 0.045 | – | – | – | – | – | 0.891 | 0.824 | 0.911 | 0.736 | 0.296 | 0.486 | 0.511 | 0.447 | – | 0.456
3 | A-427 | 0.339 | 0.3 | 0.23 | 0.225 | 0.149 | 0.838 | 0.738 | 0.887 | 0.739 | 0.815 | 1.13 | 1.04 | 1.14 | 1.06 | 1.06 | 0.761 | 0.82 | 0.923 | 0.706 | 0.733
4 | ABC-1 | 0.251 | 0.252 | 0.243 | 0.199 | 0.166 | – | – | – | – | – | 1.38 | 0.98 | 0.847 | 0.967 | 0.591 | 0.896 | 0.64 | 0.882 | 0.631 | 0.658
5 | BEN | 0.292 | 0.316 | 0.267 | 0.237 | 0.196 | 1.01 | 1.11 | 1.04 | 1.05 | 0.977 | 1.14 | 0.842 | 1.13 | 1.19 | 0.806 | 0.551 | 0.628 | 0.612 | 0.519 | 0.491
6 | CAL-12T | 0.488 | 0.622 | 0.375 | 0.32 | 0.189 | 0.376 | 0.365 | 0.316 | 0.261 | 0.307 | 1.22 | 0.907 | 0.93 | 1.1 | 0.707 | 0.381 | 0.464 | 0.578 | 0.352 | 0.377
7 | COR-L23 | 0.527 | 0.551 | 0.256 | 0.327 | 0.14 | 0.553 | 0.575 | 0.674 | 0.508 | 0.633 | 0.904 | 0.812 | 0.72 | 0.632 | 0.421 | 0.765 | 0.827 | 0.922 | 0.674 | 0.892
8 | COR-L 105 | 0.465 | 0.476 | 0.371 | 0.353 | 0.238 | 0.421 | 0.463 | 0.447 | 0.402 | 0.451 | 1.07 | 0.892 | 0.987 | 0.919 | 0.898 | 0.409 | 0.364 | 0.386 | 0.327 | 0.356
9 | Calu-6 | – | – | – | – | – | – | – | – | – | – | 0.982 | 0.988 | 1.04 | 0.85 | 0.539 | 1.04 | 1.05 | 0.955 | 0.885 | 0.82
10 | ChaGo-K-1 | 0.484 | 0.447 | 0.448 | 0.333 | 0.275 | 0.9 | 0.949 | 0.838 | 0.675 | 0.478 | – | – | – | – | – | 0.653 | 0.699 | 0.756 | 0.487 | 0.538
11 | EBC-1 | – | – | – | – | – | – | – | – | – | – | 0.843 | 0.77 | 0.892 | 0.933 | 0.626 | 0.417 | 0.39 | 0.383 | 0.391 | 0.457
12 | EKVX | 0.207 | 0.245 | 0.231 | 0.244 | 0.239 | 0.415 | 0.307 | 0.368 | – | 0.295 | 0.913 | 0.838 | 0.934 | 0.726 | 0.795 | 0.44 | 0.431 | 0.415 | 0.34 | 0.467
13 | EMC-BAC-2 | 0.476 | 0.567 | 0.424 | 0.364 | 0.26 | 1 | 0.854 | 0.939 | 0.864 | 0.952 | 0.791 | 0.705 | 0.721 | 0.724 | 0.589 | 0.61 | 0.548 | 0.545 | 0.48 | 0.505
14 | EPLC-272H | 0.273 | 0.306 | 0.281 | 0.225 | 0.125 | 0.333 | 0.263 | 0.3 | 0.243 | 0.267 | 1.09 | 0.793 | 1.06 | 0.851 | 0.863 | 0.33 | 0.315 | 0.396 | 0.39 | 0.306
15 | H3255 | 0.313 | 0.315 | 0.379 | 0.286 | 0.294 | 0.644 | 0.583 | 0.596 | 0.446 | 0.666 | 0.784 | 0.655 | 0.642 | 0.529 | 0.554 | 0.545 | 0.452 | 0.467 | 0.405 | 0.506
16 | HARA | 0.507 | 0.477 | 0.369 | 0.358 | 0.251 | 0.622 | 0.78 | 0.663 | 0.937 | 0.829 | 0.952 | 0.675 | 1.01 | 0.725 | 0.6 | 0.452 | 0.448 | 0.508 | 0.504 | 0.445
17 | HCC-15 | 0.538 | 0.55 | 0.334 | 0.305 | 0.132 | 0.397 | 0.376 | 0.417 | 0.376 | 0.374 | 0.862 | 0.705 | 0.915 | 0.863 | 0.779 | 0.776 | 0.748 | 0.843 | 0.642 | 0.758
